Values of other authors in patent US6447793B2, “Water soluble, broad spectrum preservative system” (The Collaborative Group, Ltd., priority 1998, dated 2002).

How the values were obtained:
Conditions in all cases: pH of 4.5 or below
[1] = test system: mold
[2] = test system: most bacterial
[3] = test system: yeast

## C/C=C/C=C/C(=O)O [sorbic acid, Sorbic acid]
[1]
  activity against mold: very active
[2]
  activity against most bacterial: poor
[3]
  activity against yeast: fair
